SMILES strings stand for the structures.

The IC50 is the midpoint of a concentration-inhibition curve.

The first assay deals with A549 cells. Put plainly: Cell proliferation assay (CellTiter-Glo), cells with K-Ras G12S mutation. Type of assay: cell-based. Conditions: Homo sapiens, 500 nM to 5 μM (mixed units), read-out: Inhibition of A549 Cells (IC50). The method, then:
A549 (ATCC CRL-185) and LS123 (ATCC CRL-255) cell lines comprise a G12S mutation and can be used to assess Ras cellular signaling in vitro, e.g., in response to treatment with a compound described herein. A549 culture medium is prepared with RPMI-1640 and 10% heat-inactivated FBS. LS123 culture medium is prepared with RPMI-1640 and 10% heat-inactivated FBS. A CellTiter-Glo (CTG) luminescent based assay (Promega) is used to assess growth of the cells, as a measurement of the ability of the compounds herein to inhibit Ras signaling in the cells. The cells (e.g., 800 per well) are seeded in their respective culture medium in standard tissue culture-treated 384-well format plates (Falcon #08-772-116) or ultra-low attachment surface 384-well format plates (S-Bio #MS-9384WZ). The day after plating, cells are treated with a dilution series (e.g., a 10 point 3-fold dilution series) of the compounds herein (e.g., approximately 40 μl final volume per well). Cell viability can be monitored (e.g., approximately 6 days later) according to the manufacturer's recommended instructions, where CellTiter-Glo reagent is added (e.g., approximately 10 μl), vigorously mixed, covered, and placed on a plate shaker (e.g., approximately for 20 min) to ensure sufficient cell lysis prior to assessment of luminescent signal. The IC50 values are determined using the four parameter fit. The resulting IC50 value is a measurement of the ability of the test compound to reduce cell growth of Ras-driven cells (e.g., tumor cell lines) in vitro and/or in vivo.
In general terms: In ATP-based viability assays light output follows the ATP content of the culture.
Consider `CC1CC2C(CCCN2c2nc(OC[C@@]34CCCN3C[C@H](F)C4)nc3c(F)c(-c4ccc(F)c5sc(N)c(C#N)c45)c(Cl)cc23)N1C(=O)n1cncn1` (stereo partly drawn) [Compound 113, 2-amino-4-(6-chloro-8-fluoro-2-(((2R,7aS)-2-fluorotetrahydro-1H-pyrrolizin-7a(5H)-yl)methoxy)-4-(2-methyl-1-(1H-1,2,4-triazole-1-carbonyl)octahydro-4H-pyrrolo[3,2-b]pyridin-4-yl)quinazolin-7-yl)-7-fluorobenzo[b]thiophene-3-carbonitrile], for which the IC50 is 500 to 5000 nM.

Still in this assay, the particulars now being: Homo sapiens, ≤500 nM, read-out: Inhibition of A549 Cells (IC50).
Take `CCC1N(C(=O)n2cncn2)CC12CN(c1nc(OC[C@@]34CCCN3C[C@H](F)C4)nc3c(F)c(-c4ccc(F)c5sc(N)c(C#N)c45)c(Cl)cc13)CCO2` (stereo partly drawn) [Compound 112, 2-amino-4-(6-chloro-4-(1-ethyl-2-(1H-1,2,4-triazole-1-carbonyl)-5-oxa-2,8-diazaspiro[3.5]nonan-8-yl)-8-fluoro-2-(((2R,7aS)-2-fluorotetrahydro-1H-pyrrolizin-7a(5H)-yl)methoxy)quinazolin-7-yl)-7-fluorobenzo[b]thiophene-3-carbonitrile]: the IC50 was ≤ 500 nM.

In the case of `CCN(C(=O)n1cnc(F)n1)[C@@H]1CCN(c2nc(OC[C@@]34CCCN3C[C@H](F)C4)nc3c(F)c(-c4ccc(F)c5sc(N)c(C#N)c45)c(Cl)cc23)[C@@H]1C` [Compound 115, N-((2R,3R)-1-(7-(2-amino-3-cyano-7-fluorobenzo[b]thiophen-4-yl)-6-chloro-8-fluoro-2-(((2R,7aS)-2-fluorotetrahydro-1H-pyrrolizin-7a(5H)-yl)methoxy)quinazolin-4-yl)-2-methylpyrrolidin-3-yl)-N-ethyl-3-fluoro-1H-1,2,4-triazole-1-carboxamide], the IC50 is ≤ 500 nM.

`CC(C)C1N(C(=O)n2cncn2)CC12CCCN(c1nc(OC[C@@]34CCCN3C[C@H](F)C4)nc3c(F)c(-c4ccc(F)c5sc(N)c(C#N)c45)c(Cl)cc13)C2` (stereo partly drawn) [Compound 116, 2-amino-4-(6-chloro-8-fluoro-2-(((2R,7aS)-2-fluorotetrahydro-1H-pyrrolizin-7a(5H)-yl)methoxy)-4-(1-isopropyl-2-(1H-1,2,4-triazole-1-carbonyl)-2,6-diazaspiro[3.5]nonan-6-yl)quinazolin-7-yl)-7-fluorobenzo[b]thiophene-3-carbonitrile]: the half-maximal inhibitory concentration (IC50) is ≤ 500 nM.

On to `CC(C)[C@H]1N(C(=O)n2cncn2)C[C@]12CCCN(c1nc(OC[C@@]34CCCN3C[C@H](F)C4)nc3c(F)c(-c4ccc(F)c5sc(N)c(C#N)c45)c(Cl)cc13)C2` [Compound 118, 2-amino-4-(6-chloro-8-fluoro-2-(((2R,7aS)-2-fluorotetrahydro-1H-pyrrolizin-7a(5H)-yl)methoxy)-4-((1R,4R)-1-isopropyl-2-(1H-1,2,4-triazole-1-carbonyl)-2,6-diazaspiro[3.5]nonan-6-yl)quinazolin-7-yl)-7-fluorobenzo[b]thiophene-3-carbonitrile], for which the IC50 is ≤ 500 nM.

As to `CN(C(=O)n1cncn1)C1CCCN(c2nc(OC[C@@]34CCCN3C[C@H](F)C4)nc3c(F)c(-c4ccc(F)c5sc(N)c(C#N)c45)c(Cl)cc23)C1` (stereo partly drawn) [Compound 119, N-(1-(7-(2-amino-3-cyano-7-fluorobenzo[b]thiophen-4-yl)-6-chloro-8-fluoro-2-(((2R,7aS)-2-fluorotetrahydro-1H-pyrrolizin-7a(5H)-yl)methoxy)quinazolin-4-yl)piperidin-3-yl)-N-methyl-1H-1,2,4-triazole-1-carboxamide], the IC50 was ≤ 500 nM.

`COCC1([C@@H]2[C@H](CN(C)c3nc(OC[C@@]45CCCN4C[C@H](F)C5)nc4c(F)c(-c5ccc(F)c6sc(N)c(C#N)c56)c(Cl)cc34)CN2C(=O)n2cnc(F)n2)CC1` [Compound 120, 2-amino-4-(6-chloro-8-fluoro-4-((((2S,3R)-1-(3-fluoro-1H-1,2,4-triazole-1-carbonyl)-2-(1-(methoxymethyl)cyclopropyl)azetidin-3-yl)methyl)(methyl)amino)-2-(((2R,7aS)-2-fluorotetrahydro-1H-pyrrolizin-7a(5H)-yl)methoxy)quinazolin-7-yl)-7-fluorobenzo[b]thiophene-3-carbonitrile]: the concentration for half-maximal inhibition (IC50) was ≤ 500 nM.

For the compound `CCC1N(C(=O)n2cncn2)CC12CCN(c1nc(OC[C@@]34CCCN3C[C@H](F)C4)nc3c(F)c(-c4ccc(F)c5sc(N)c(C#N)c45)c(Cl)cc13)C2` (stereo partly drawn) [Compound 123, (4R)-2-amino-4-(6-chloro-4-(1-ethyl-2-(1H-1,2,4-triazole-1-carbonyl)-2,6-diazaspiro[3.4]octan-6-yl)-8-fluoro-2-(((2R,7aS)-2-fluorotetrahydro-1H-pyrrolizin-7a(5H)-yl)methoxy)quinazolin-7-yl)-7-fluorobenzo[b]thiophene-3-carbonitrile], the half-inhibitory concentration (IC50) was ≤ 500 nM.

Take `CN(C(=O)n1cncn1)C1CCN(c2nc(OC[C@@]34CCCN3C[C@H](F)C4)nc3c(F)c(-c4ccc(F)c5sc(N)c(C#N)c45)c(Cl)cc23)C1` (stereo partly drawn) [Compound 124, N-(1-(7-(2-amino-3-cyano-7-fluorobenzo[b]thiophen-4-yl)-6-chloro-8-fluoro-2-(((2R,7aS)-2-fluorotetrahydro-1H-pyrrolizin-7a(5H)-yl)methoxy)quinazolin-4-yl)pyrrolidin-3-yl)-N-methyl-1H-1,2,4-triazole-1-carboxamide]: the IC50 is ≤ 500 nM.

Regarding `CC1C(N(C)C(=O)n2cncn2)CCN1c1nc(OC[C@@]23CCCN2C[C@H](F)C3)nc2c(F)c(-c3ccc(F)c4sc(N)c(C#N)c34)c(Cl)cc12` (stereo partly drawn) [Compound 125, N-(1-(7-(2-amino-3-cyano-7-fluorobenzo[b]thiophen-4-yl)-6-chloro-8-fluoro-2-(((2R,7aS)-2-fluorotetrahydro-1H-pyrrolizin-7a(5H)-yl)methoxy)quinazolin-4-yl)-2-methylpyrrolidin-3-yl)-N-methyl-1H-1,2,4-triazole-1-carboxamide], the IC50 was ≤ 500 nM.

As to `N#Cc1c(N)sc2c(F)ccc(-c3c(Cl)cc4c(N5CCCC6(C5)CN(C(=O)n5cncn5)C6C5CC5)nc(OC[C@@]56CCCN5C[C@H](F)C6)nc4c3F)c12` (stereo partly drawn) [Compound 127, 2-amino-4-(6-chloro-4-(1-cyclopropyl-2-(1H-1,2,4-triazole-1-carbonyl)-2,6-diazaspiro[3.5]nonan-6-yl)-8-fluoro-2-(((2R,7aS)-2-fluorotetrahydro-1H-pyrrolizin-7a(5H)-yl)methoxy)quinazolin-7-yl)-7-fluorobenzo[b]thiophene-3-carbonitrile], the IC50 was ≤ 500 nM.

With `COCC1([C@H]2N(C(=O)n3cnc(F)n3)C[C@]23CC[C@H](C)N(c2nc(OC[C@@]45CCCN4C[C@H](F)C5)nc4c(F)c(-c5ccc(F)c6sc(N)c(C#N)c56)c(Cl)cc24)C3)CC1` [Compound 129, 2-amino-4-(6-chloro-8-fluoro-4-((1S,4R,7S)-2-(3-fluoro-1H-1,2,4-triazole-1-carbonyl)-1-(1-(methoxymethyl)cyclopropyl)-7-methyl-2,6-diazaspiro[3.5]nonan-6-yl)-2-(((2R,7aS)-2-fluorotetrahydro-1H-pyrrolizin-7a(5H)-yl)methoxy)quinazolin-7-yl)-7-fluorobenzo[b]thiophene-3-carbonitrile], the IC50 is ≤ 500 nM.

Regarding `CN(C[C@@H]1CN(C(=O)n2cnc(F)n2)[C@@H]1C1(C)CC1)c1nc(OC[C@@]23CCCN2C[C@H](F)C3)nc2c(F)c(-c3ccc(F)c4sc(N)c(C#N)c34)c(Cl)cc12` [Compound 130, 2-amino-4-(6-chloro-8-fluoro-4-((((2S,3R)-1-(3-fluoro-1H-1,2,4-triazole-1-carbonyl)-2-(1-methylcyclopropyl)azetidin-3-yl)methyl)(methyl)amino)-2-(((2R,7aS)-2-fluorotetrahydro-1H-pyrrolizin-7a(5H)-yl)methoxy)quinazolin-7-yl)-7-fluorobenzo[b]thiophene-3-carbonitrile], the IC50 was ≤ 500 nM.

For `CC[C@H]1N(C(=O)n2cnc(Cl)n2)C[C@]12CCCCN(c1nc(OC[C@@]34CCCN3C[C@H](F)C4)nc3c(F)c(-c4ccc(F)c5sc(N)c(C#N)c45)c(Cl)cc13)C2` [Compound 131, 2-amino-4-(6-chloro-4-((1R,4R)-2-(3-chloro-1H-1,2,4-triazole-1-carbonyl)-1-ethyl-2,6-diazaspiro[3.6]decan-6-yl)-8-fluoro-2-(((2R,7aS)-2-fluorotetrahydro-1H-pyrrolizin-7a(5H)-yl)methoxy)quinazolin-7-yl)-7-fluorobenzo[b]thiophene-3-carbonitrile], the IC50 is ≤ 500 nM.

For `N#Cc1c(N)sc2c(F)ccc(-c3c(Cl)cc4c(N5CCC[C@@]6(C5)CN(C(=O)n5cnc(Cl)n5)[C@@H]6C5CCC5)nc(OC[C@@]56CCCN5C[C@H](F)C6)nc4c3F)c12` [Compound 133, 2-amino-4-(6-chloro-4-((1R,4R)-2-(3-chloro-1H-1,2,4-triazole-1-carbonyl)-1-cyclobutyl-2,6-diazaspiro[3.5]nonan-6-yl)-8-fluoro-2-(((2R,7aS)-2-fluorotetrahydro-1H-pyrrolizin-7a(5H)-yl)methoxy)quinazolin-7-yl)-7-fluorobenzo[b]thiophene-3-carbonitrile], the IC50 was ≤ 500 nM.

Source of the values: patent US20250381243A1, “HETEROCYCLES AND USES THEREOF” (Kumquat Biosciences Inc., priority 2022, published 2025).
